Measurements: US9771353B2, “Kinase inhibitors based upon N-alkyl pyrazoles” (RESPIVERT LIMITED, priority 2013, dated 2017)

Assays:
[1] = tested on: intestinal mucosa biopsies from UC patients; experiment: Human biopsy assay (l): cytokine release from intestinal mucosa biopsies of ulcerative colitis patients; format: cell-based; settings: 1 μg/mL, 24 hours
Description: Intestinal mucosa biopsies are obtained from the inflamed regions of the colon of IBD patients. The biopsy material is cut into small pieces (2-3 mm) and placed on steel grids in an organ culture chamber at 37° C. in a 5% CO2/95% O2 atmosphere in serum-free media. DMSO control or test compounds at the desired concentration are added to the tissue and incubated for 24 hr in the organ culture chamber. The supernatant is harvested for determination of IL-6, IL-8, IL-1β and TNFα levels by R&D ELISA. Percentage inhibition of cytokine release by the test compounds is calculated relative to the cytokine release determined for the DMSO control (100%).

[2] = target: GSK3α (Homo sapiens (Human), UniProt P49840); experiment: GSK 3α enzyme inhibition (FRET, Z-LYTE), Method 2; format: biochemical
Description: (§1) The enzyme inhibitory activities of compounds disclosed herein are determined by FRET using synthetic peptides labelled with both donor and acceptor fluorophores (Z-LYTE, Invitrogen Ltd., Paisley, UK).
The inhibitory activities of compounds of the invention against the GSK 3α enzyme isoform (Invitrogen), are evaluated by determining the level of activation/phosphorylation of the target peptide. The GSK3-α protein (500 ng/mL, 2.5 μL) is mixed with the test compound (2.5 μL at either 4 μg/mL, 0.4 μg/mL, 0.04 μg/mL, or 0.004 μg/mL) for 2 hr at RT. The FRET peptide (8 μM, 2.5 μL), which is a phosphorylation target for GSK3α, and ATP (40 μM, 2.5 μL) are then added to the enzyme/compound mixture and the resulting mixture incubated for 1 hr. Development reagent (protease, 5 μL) is added for 1 hr prior to detection in a fluorescence microplate reader (Varioskan® Flash, ThermoFisher Scientific).
(§2) In all cases, the site-specific protease cleaves non-phosphorylated peptide only and eliminates the FRET signal. Phosphorylation levels of each reaction are calculated using the ratio of coumarin emission (donor) over fluorescein emission (acceptor), for which high ratios indicate high phosphorylation and low ratios indicate low phosphorylation levels.
This method follows the same steps as Method 1 above, but utilises a shorter period of mixing of the test compound (105 minutes instead of 2 hours) with the GSK3-α protein.

[3] = tested on: TNBS-induced colitis in mice; experiment: TNBS-induced colitis in mice, in vivo assay (iv), conducted over 2 days; settings: for Ulcer grade: TNBS + Vehicle 4.3 ± 0.2; for LP inflammation: TNBS + Vehicle 4.7 ± 0.1
Description: Non-fasted, 10-12 week old, male BDF1 mice are dosed by oral gavage twice daily with either vehicle (5 mL/kg), reference item (Budesonide 2.5 mg/kg) or test compound (1 or 5 mg/kg) one day before (Day −1) stimulation of the inflammatory response by treatment with 2,4,6-trinitrobenzenesulphonic acid (TNBS) (15 mg/mL in 50% ethanol/50% saline). On Day 0 of the study TNBS (200 μL) is administered intra-colonically via a plastic catheter with BID dosing of the vehicle, reference or test compound continuing for 2 or 4 days. During the study animals are weighed every day and stool observations are made and recorded as a score, based on stool consistency. At the time of sacrifice on Day 2 (or Day 4) the large intestine is removed and the length and weight recorded. Sections of the colon are taken for histopathology scoring to determine disease severity.

[4] = target: c-Src (Homo sapiens (Human), UniProt P12931); experiment: c-Src enzyme inhibition (FRET, Z-LYTE); format: biochemical
Description: as §1
The relevant enzyme (3000 ng/mL or 2000 ng/mL respectively, 2.5 μL) is incubated with the test compound (either 4 μg/mL, 0.4 μg/mL, 0.04 μg/mL, or 0.004 μg/mL, 2.5 μL each) for 2 hr at RT. The FRET peptides (8 μM, 2.5 μL), and appropriate ATP solutions (2.5 μL, 800 μM for c-Src, and 60 μM ATP for Syk) are then added to the enzymes/compound mixtures and incubated for 1 hr. Development reagent (protease, 5 μL) is added for 1 hr prior to detection in a fluorescence microplate reader (Varioskan® Flash, ThermoFisher Scientific).
as §2

[5] = target: p38 MAPKα (Homo sapiens (Human), UniProt Q16539); experiment: p38 MAPKα enzyme inhibition (FRET, Z-LYTE), Method 2; format: biochemical
[6] = UC patient biopsies, DMSO control = 100%

Sequence of GSK3α (P49840 whole entry): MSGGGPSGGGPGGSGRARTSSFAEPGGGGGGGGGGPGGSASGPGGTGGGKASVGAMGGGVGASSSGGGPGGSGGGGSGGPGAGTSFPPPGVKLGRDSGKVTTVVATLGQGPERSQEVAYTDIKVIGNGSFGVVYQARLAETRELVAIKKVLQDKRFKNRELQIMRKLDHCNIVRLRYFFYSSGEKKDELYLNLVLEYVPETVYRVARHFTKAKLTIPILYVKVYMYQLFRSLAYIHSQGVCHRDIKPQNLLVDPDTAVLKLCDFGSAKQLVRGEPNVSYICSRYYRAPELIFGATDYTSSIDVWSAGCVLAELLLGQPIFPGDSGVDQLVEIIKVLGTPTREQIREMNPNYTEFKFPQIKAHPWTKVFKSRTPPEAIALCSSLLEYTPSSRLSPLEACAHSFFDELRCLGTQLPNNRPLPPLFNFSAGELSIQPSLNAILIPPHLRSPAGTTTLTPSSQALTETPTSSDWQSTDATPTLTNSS
Sequence of p38 MAPKα (Q16539 whole entry): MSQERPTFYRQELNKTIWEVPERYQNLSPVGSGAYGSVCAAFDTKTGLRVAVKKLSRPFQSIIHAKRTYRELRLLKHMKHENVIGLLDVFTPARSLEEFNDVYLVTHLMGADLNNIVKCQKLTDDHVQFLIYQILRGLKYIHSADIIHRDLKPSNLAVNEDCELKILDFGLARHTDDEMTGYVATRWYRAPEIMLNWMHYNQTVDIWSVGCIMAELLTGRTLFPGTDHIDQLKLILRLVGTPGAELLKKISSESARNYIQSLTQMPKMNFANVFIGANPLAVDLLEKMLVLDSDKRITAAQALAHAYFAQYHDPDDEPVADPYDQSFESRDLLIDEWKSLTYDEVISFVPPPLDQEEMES
Sequence of c-Src (P12931 whole entry, looked up): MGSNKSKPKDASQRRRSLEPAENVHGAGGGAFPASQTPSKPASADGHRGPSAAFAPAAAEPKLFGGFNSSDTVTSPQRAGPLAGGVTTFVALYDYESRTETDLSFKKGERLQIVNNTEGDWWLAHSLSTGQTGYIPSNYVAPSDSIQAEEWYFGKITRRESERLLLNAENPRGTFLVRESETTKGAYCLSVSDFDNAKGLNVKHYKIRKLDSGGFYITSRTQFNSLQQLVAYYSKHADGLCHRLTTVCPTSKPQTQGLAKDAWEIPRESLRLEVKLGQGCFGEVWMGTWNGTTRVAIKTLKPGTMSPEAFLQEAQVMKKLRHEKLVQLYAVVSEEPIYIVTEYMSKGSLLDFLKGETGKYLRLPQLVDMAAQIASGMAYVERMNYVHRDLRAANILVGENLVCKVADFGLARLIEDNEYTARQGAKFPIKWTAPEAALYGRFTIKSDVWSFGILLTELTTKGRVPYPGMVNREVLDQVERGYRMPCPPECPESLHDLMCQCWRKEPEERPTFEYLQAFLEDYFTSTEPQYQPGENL

Row | IC50 [2] | IC50 [4] | IC50 [5] | SMILES | IL-1β release [1, 6] | IL-6 release [1, 6] | IL-8 release [1, 6] | cytokine (IL-1β, IL-6 and IL-8) release compared to the DMSO control ([1]; biopsies from ulcerative colitis patients) | Ulcer grade ([3]; 1 mg/kg oral BID, mice, 2 days) | LP inflammation ([3]; 1 mg/kg oral BID, mice, 2 days) | Ulcer grade ([3]; 5 mg/kg oral BID, mice, 2 days) | LP inflammation ([3]; 5 mg/kg oral BID, mice, 2 days) | inflammatory cell infiltrate in the reticular and laminar propria zone ([3]; TNBS colitis, mice) | activity in in vivo model of colonic inflammation (histopathology analysis) ([3]; TNBS colitis, mice, 2 days) | ulcer grade and epithelial repair compared to the vehicle control ([3]; dosed orally at either 1 or 5 mg/kg)
1 | 499 nM |  |  | C#Cc1cc(Nc2nccc(Oc3ccc(NC(=O)Nc4cc(C(C)(C)C)nn4C)c4ccccc34)n2)cc(C(=O)NCCN2CCOCC2)c1 [Example 1, 3-((4-((4-(3-(3-(tert-Butyl)-1-methyl-1H-pyrazol-5-yl)ureido)naphthalen-1-yl)oxy)pyrimidin-2-yl)amino)-5-ethynyl-N-(2-morpholinoethyl)benzamide] | 3 ± 2% | 8 ± 8% | 2 ± 2% | significantly inhibited | 3.3 ± 0.5 | 4.2 ± 0.2 | 3.2 ± 0.5 | 2.4 ± 0.3 | marked reduction | significant activity | marked improvements
2 | 5230 nM | 5 nM | 10 nM | COCCOCCOCCOc1cc(Nc2nccc(Oc3ccc(NC(=O)Nc4cc(C(C)(C)C)nn4C)c4ccccc34)n2)cc(OC)c1 [Example 2, 1-(3-(tert-Butyl)-1-methyl-1H-pyrazol-5-yl)-3-(4-((2-((3-methoxy-5-(2-(2-(2-methoxy-ethoxy)ethoxy)ethoxy)phenyl)amino)pyrimidin-4-yl)oxy)naphthalen-1-yl)urea] |  |  |  |  |  |  |  |  |  |  | 
